Assay results from PubChem BioAssay AID192 (DTP/NCI, 2004).
Where “and” joins values, the source holds several entries; their conditions need not be identical. Equal values may be shown once. Toxic doses and inconclusive results are not listed. Numbered stars: 1 amine (or outer) side, 2 acyl side, 3 side chain; on linkers, the order of the positions; unused ones are H or OH. Bridge positions count the residues as written; N and C are the ends. Square brackets hold non-standard residues; d marks the D form. Peptide text beside a SMILES is read from it. I, II: the chains in the order shown. Actinocin(1to9) = Cc1c2oc3c(C)ccc(C(=O)[*:2])c3nc-2c(C(=O)[*:1])c(N)c1=O; NMeV = CN[CH](C(=O)O)C(C)C; Aze = O=C(O)[CH]1CCN1; Sar = CNCC(=O)O

System: BDF1 mice, B16 melanoma ip, median survival T/C
Experiment: NCI In Vivo Anticancer Drug Screen. Data for tumor model B16 Melanoma (intraperitoneal) in B6D2F1 (BDF1) mice
Conditions: endpoint: median survival time, higher = longer survival
Method in brief: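 In this screen, activity was judged from survival or tumor size in treated versus vehicle-treated tumor-bearing mice, reported as T/C.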

[1] = dose: 37.5 mg/kg/injection, schedule: Q01DX009 (ip), vehicle: saline with Tween-80
[2] = dose: 12.5 mg/kg/injection, schedule: Q01DX009 (ip), vehicle: Klucel (hydroxypropylcellulose) (HPC)
[3] = dose: 12.5 mg/kg/injection, schedule: Q01DX009 (ip), vehicle: saline
[4] = dose: 25.0 mg/kg/injection, schedule: Q01DX009 (ip), vehicle: saline
[5] = dose: 50.0 mg/kg/injection, schedule: Q01DX009 (ip), vehicle: saline
[6] = dose: 100.0 mg/kg/injection, schedule: Q01DX009 (ip), vehicle: saline
[7] = dose: 200.0 mg/kg/injection, schedule: Q01DX009 (ip), vehicle: saline
[8] = dose: 50.0 mg/kg/injection, schedule: Q01DX009 (ip), vehicle: saline with Tween-80
[9] = dose: 100.0 mg/kg/injection, schedule: Q01DX009 (ip), vehicle: saline with Tween-80

CN(C)CCCN1c2ccccc2Sc2ccccc21
T/C (dose: 4.6 mg/kg/injection, schedule: Q01DX009 (ip), vehicle: saline): 111 % of control | T/C (dose: 9.3 mg/kg/injection, schedule: Q01DX009 (ip), vehicle: saline): 111 % of control | T/C (dose: 18.75 mg/kg/injection, schedule: Q01DX009 (ip), vehicle: saline with Tween-80): 101 % of control | T/C (dose: 18.75 mg/kg/injection, schedule: Q01DX009 (ip), vehicle: saline): 120 % of control | T/C (dose: 35.5 mg/kg/injection, schedule: Q01DX009 (ip), vehicle: saline): 111 % of control | T/C [1]: 97 % of control | T/C (dose: 75.0 mg/kg/injection, schedule: Q01DX009 (ip), vehicle: saline with Tween-80): 95 % of control

Cn1c(O)c(C=N)c(=O)[nH]c1=O
T/C (dose: 75.0 mg/kg/injection, schedule: Q01DX009 (ip), vehicle: Klucel (hydroxypropylcellulose) (HPC)): 90 % of control | T/C (dose: 300.0 mg/kg/injection, schedule: Q01DX009 (ip), vehicle: Klucel (hydroxypropylcellulose) (HPC)): 90 % of control

CCC[CH2][Sn]([Cl])([CH2]CCC)[S]C(=S)NCCNC(=S)[S][Sn]([Cl])([CH2]CCC)[CH2]CCC
T/C (dose: 3.12 mg/kg/injection, schedule: Q01DX009 (ip), vehicle: Klucel (hydroxypropylcellulose) (HPC)): 94 % of control | T/C (dose: 6.25 mg/kg/injection, schedule: Q01DX009 (ip), vehicle: Klucel (hydroxypropylcellulose) (HPC)): 96 % of control | T/C [2]: 101 % of control

O=P1(NCCCl)OCCCN1CCCl (stereo not given)
T/C [3]: 109 % of control | T/C [4]: 103 % of control and 111 % of control and 119 % of control | T/C (dose: 25.0 mg/kg/injection, schedule: Q01DX009 (ip), vehicle: water): 104 % of control and 121 % of control | T/C (dose: 25.0 mg/kg/injection, schedule: Q02DX009 (ip), vehicle: saline): 100 % of control and 107 % of control | T/C (dose: 25.0 mg/kg/injection, schedule: Q02DX009 (ip), vehicle: water): 114 % of control | T/C [5]: 90 % of control and 111 % of control and 116 % of control | T/C (dose: 50.0 mg/kg/injection, schedule: Q02DX009 (ip), vehicle: water): 124 % of control | T/C (dose: 100.0 mg/kg/injection, schedule: Q01DX009 (ip), vehicle: water): 169 % of control | T/C (dose: 200.0 mg/kg/injection, schedule: Q02DX009 (ip), vehicle: water): 122 % of control

CN1CC[C@]23c4c5ccc(O)c4O[C@H]2C(=O)CC[C@H]3[C@H]1C5
T/C (dose: 12.5 mg/kg/injection, schedule: Q01DX005 (iv), vehicle: saline): 86 % of control | T/C [3]: 94 % of control | T/C (dose: 25.0 mg/kg/injection, schedule: Q01DX005 (iv), vehicle: saline): 111 % of control | T/C [4]: 98 % of control | T/C (dose: 50.0 mg/kg/injection, schedule: Q01DX005 (iv), vehicle: saline): 95 % of control | T/C [5]: 100 % of control

C1CC[N-]CC1.C1CC[N-]CC1.N#C[S-].N#C[S-].[Cu]
T/C (dose: 2.5 mg/kg/injection, schedule: Q04DX003 (ip), vehicle: saline with Tween-80): 110 % of control | T/C (dose: 5.0 mg/kg/injection, schedule: Q04DX003 (ip), vehicle: saline with Tween-80): 93 % of control | T/C (dose: 10.0 mg/kg/injection, schedule: Q04DX003 (ip), vehicle: saline with Tween-80): 93 % of control

O=C1C=CN(C2OC(CO)C(O)C2O)C(=O)C1 (stereo not given)
T/C [3]: 104 % of control | T/C [4]: 104 % of control | T/C (dose: 50.0 mg/kg/injection, schedule: Q01DX009 (ip), vehicle: saline sonified): 100 % of control | T/C [5]: 119 % of control | T/C (dose: 100.0 mg/kg/injection, schedule: Q01DX009 (ip), vehicle: saline sonified): 86 % of control | T/C [6]: 118 % of control | T/C (dose: 200.0 mg/kg/injection, schedule: Q01DX009 (ip), vehicle: saline sonified): 89 % of control

OCCN1CCC2(CC1)SSC1(CCN(CCO)CC1)S2
T/C [6]: 117 % of control | T/C [7]: 112 % of control

CCOC(=O)C(=CN(C(C)C)C(C)C)C(=O)OCC
T/C [8]: 117 % of control | T/C (dose: 50.0 mg/kg/injection, schedule: Q04DX003 (ip), vehicle: saline with Tween-80): 108 % of control | T/C [9]: 111 % of control | T/C (dose: 100.0 mg/kg/injection, schedule: Q04DX003 (ip), vehicle: saline with Tween-80): 108 % of control | T/C (dose: 200.0 mg/kg/injection, schedule: Q04DX003 (ip), vehicle: saline with Tween-80): 108 % of control

CC1CN1P(=O)(OCCC#N)N1CC1C (stereo not given)
T/C [5]: 121 % of control | T/C [6]: 115 % of control | T/C [7]: 120 % of control

Cc1c2oc3c(C)ccc(C(=O)NC4C(=O)NC(C(C)C)C(=O)N5CCCC5C(=O)N(C)CC(=O)N(C)C(C(C)C)C(=O)OC4C)c3nc-2c(C(=O)NC2C(=O)NC(C(C)C)C(=O)N3CCC3C(=O)N(C)CC(=O)N(C)C(C(C)C)C(=O)OC2C)c(N)c1=O (stereo not given) (I: TV[Aze][Sar][NMeV] / II: TVP[Sar][NMeV]; ester I:1-I:C, II:1-II:C; linker I:N-II:N via Actinocin(1to9); configuration not given here)
T/C (dose: 0.23 mg/kg/injection, schedule: Q01DX009 (ip), vehicle: saline + alcohol): 172 % of control | T/C (dose: 0.3 mg/kg/injection, schedule: Q04DX003 (ip), vehicle: saline + alcohol): 163 % of control | T/C (dose: 19.4 micrograms/kg/injection, schedule: Q01DX009 (ip), vehicle: saline + alcohol): 107 % of control | T/C (dose: 37.0 micrograms/kg/injection, schedule: Q01DX009 (ip), vehicle: saline + alcohol): 182 % of control | T/C (dose: 75.0 micrograms/kg/injection, schedule: Q01DX009 (ip), vehicle: saline + alcohol): 156 % of control and 190 % of control | T/C (dose: 100.0 micrograms/kg/injection, schedule: Q01DX009 (ip), vehicle: saline + alcohol): 151 % of control | T/C (dose: 150.0 micrograms/kg/injection, schedule: Q01DX009 (ip), vehicle: saline + alcohol): 159 % of control | T/C (dose: 250.0 micrograms/kg/injection, schedule: Q01DX009 (ip), vehicle: saline + alcohol): 153 % of control

CCCNCCN(CC)CC
T/C [8]: 107 % of control | T/C [9]: 100 % of control | T/C (dose: 200.0 mg/kg/injection, schedule: Q01DX009 (ip), vehicle: saline with Tween-80): 99 % of control

[Cl][Pt+2][Cl].[NH-]C1CCC1.[NH2-]
T/C (dose: 1.5 mg/kg/injection, schedule: Q01DX009 (ip), vehicle: saline): 176 % of control | T/C (dose: 3.0 mg/kg/injection, schedule: Q01DX009 (ip), vehicle: saline): 162 % of control

C=C1C(=O)O[C@@H]2[C@H](O)[C@@H](C)[C@@H]3C=CC(=O)[C@@]3(C)[C@@H](OC(=O)/C(C)=C/C)[C@H]12
T/C (dose: 1.5 mg/kg/injection, schedule: Q01DX009 (ip), vehicle: other): 101 % of control | T/C (dose: 1.5 mg/kg/injection, schedule: Q01DX009 (ip), vehicle: saline + alcohol): 92 % of control | T/C (dose: 3.0 mg/kg/injection, schedule: Q01DX009 (ip), vehicle: other): 98 % of control | T/C (dose: 3.0 mg/kg/injection, schedule: Q01DX009 (ip), vehicle: saline + alcohol): 96 % of control | T/C (dose: 6.0 mg/kg/injection, schedule: Q01DX009 (ip), vehicle: other): 99 % of control | T/C (dose: 6.0 mg/kg/injection, schedule: Q01DX009 (ip), vehicle: saline + alcohol): 96 % of control

O=C1c2ccccc2C(=O)c2c3c(cc(NCCNCCO)c21)N(CCO)CCN3
T/C (dose: 12.5 mg/kg/injection, schedule: Q01DX009 (ip), vehicle: DMSO): 121 % of control | T/C (dose: 100.0 mg/kg/injection, schedule: Q01DX009 (ip), vehicle: DMSO): 162 % of control | T/C (dose: 200.0 mg/kg/injection, schedule: Q01DX009 (ip), vehicle: DMSO): 194 % of control

CC(=O)OC12CC[N+]3(C)CCCCC3C1=Nc1ccccc12 (stereo not given)
T/C [2]: 109 % of control | T/C (dose: 25.0 mg/kg/injection, schedule: Q01DX009 (ip), vehicle: Klucel (hydroxypropylcellulose) (HPC)): 104 % of control

CN1CCC23c4c5ccc(O)c4OC2C(O)C=CC3C1C5 (stereo not given)
T/C (dose: 32.0 mg/kg/injection, schedule: Q01DX009 (ip), vehicle: saline): 114 % of control | T/C (dose: 64.0 mg/kg/injection, schedule: Q01DX009 (ip), vehicle: saline): 111 % of control | T/C (dose: 128.0 mg/kg/injection, schedule: Q01DX009 (ip), vehicle: saline): 100 % of control | T/C (dose: 256.0 mg/kg/injection, schedule: Q01DX009 (ip), vehicle: saline): 94 % of control

CNC(=O)Oc1c(C)occc1=O
T/C (dose: 6.25 mg/kg/injection, schedule: Q01DX009 (ip), vehicle: saline): 100 % of control | T/C [3]: 90 % of control | T/C [4]: 100 % of control | T/C [5]: 97 % of control

O=NN(CCF)C(=O)NC1CCC(NC(=O)N(CCF)N=O)CC1 (stereo not given)
T/C (dose: 12.5 mg/kg/injection, schedule: Q01DX009 (ip), vehicle: saline with Tween-80): 166 % of control | T/C (dose: 16.5 mg/kg/injection, schedule: Q01DX009 (ip), vehicle: saline with Tween-80): 232 % of control | T/C (dose: 16.5 mg/kg/injection, schedule: Q01DX009 (ip), vehicle: saline): 181 % of control | T/C (dose: 25.0 mg/kg/injection, schedule: Q01DX009 (ip), vehicle: saline with Tween-80): 214 % of control and 276 % of control | T/C [4]: 120 % of control | T/C [1]: 212 % of control
